From US10227357B2, “Compounds and methods for kinase modulation, and indications therefor” (Plexxikon Inc., priority 2012, dated 2019) come the findings set out here.

What is called IC50 is the concentration that gives 50% inhibition.

The target in one test is T1, c-kit mutant D816V (Homo sapiens, UniProt P10721, D816V/DEL694-753).
T1 construct: residues 551-934, kinase insertion domain residues 694-753 deleted; 6x-histidine (N); made in house; host or cells: E. coli Arctic Express (DE3) RIL (Stratagene)
T1 sequence (P10721 with tags, fused parts or gaps DEL694-753/D816V): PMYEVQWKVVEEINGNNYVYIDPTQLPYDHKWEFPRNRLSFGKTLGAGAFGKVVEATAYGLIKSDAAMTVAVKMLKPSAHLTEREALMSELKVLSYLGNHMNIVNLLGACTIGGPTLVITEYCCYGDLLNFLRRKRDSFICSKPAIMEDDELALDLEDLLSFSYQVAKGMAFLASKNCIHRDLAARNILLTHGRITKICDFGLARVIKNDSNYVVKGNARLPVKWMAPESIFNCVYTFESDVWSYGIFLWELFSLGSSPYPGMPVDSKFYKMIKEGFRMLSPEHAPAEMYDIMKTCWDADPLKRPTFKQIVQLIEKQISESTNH
Briefly: c-Kit mutant D816V biochemical assay, AlphaScreen. The note with it: c-kit D816V biochemical inhibitory activity; read-out: Biochemical activity (IC50 μM) Kit D816V. A digest of the protocol: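 Purified His-tagged c-Kit D816V (E. coli-expressed) assayed in 25 mM HEPES pH 7.2 with Mg/Mn, 5% DMSO and 10 μM ATP, 30 min at room temperature, 8-point 1:3 dilutions. Phosphorylation detected by AlphaScreen with streptavidin donor and PY20 acceptor beads; IC50 from signal versus concentration.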
(Alpha assays give light when donor and acceptor beads are brought close together.)

The next test concerns the target T2, c-kit kinase (Homo sapiens, UniProt P10721).
T2 construct: The c-kit (or kinase domain thereof) is an active kinase in AlphaScreen; poly-Histidine tag (in-house protein only) (cleaved yes); host or cells: E. coli BL21(DE3)RIL, co-expressed with PTP1B
Briefly: c-Kit biochemical assay, AlphaScreen, 10 μM ATP. The note with it: c-kit biochemical inhibitory activity; read-out: Biochemical activity (IC50 μM) Kit. A digest of the protocol: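 His-tagged c-Kit expressed in E. coli with co-expressed PTP1B (dephosphorylated), tag removed; 0.1 ng per reaction with biotinylated-peptide substrate in 50 mM HEPES pH 7.2, 5 mM MgCl2, 5 mM MnCl2, 5% DMSO, 10 μM ATP, 1 h at room temperature. Phosphorylation detected by AlphaScreen (streptavidin donor, PY20 acceptor beads); IC50 from 8-point 1:3 dilution series.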

SMILES strings stand for the structures.

T2 sequence (P10721 26-976): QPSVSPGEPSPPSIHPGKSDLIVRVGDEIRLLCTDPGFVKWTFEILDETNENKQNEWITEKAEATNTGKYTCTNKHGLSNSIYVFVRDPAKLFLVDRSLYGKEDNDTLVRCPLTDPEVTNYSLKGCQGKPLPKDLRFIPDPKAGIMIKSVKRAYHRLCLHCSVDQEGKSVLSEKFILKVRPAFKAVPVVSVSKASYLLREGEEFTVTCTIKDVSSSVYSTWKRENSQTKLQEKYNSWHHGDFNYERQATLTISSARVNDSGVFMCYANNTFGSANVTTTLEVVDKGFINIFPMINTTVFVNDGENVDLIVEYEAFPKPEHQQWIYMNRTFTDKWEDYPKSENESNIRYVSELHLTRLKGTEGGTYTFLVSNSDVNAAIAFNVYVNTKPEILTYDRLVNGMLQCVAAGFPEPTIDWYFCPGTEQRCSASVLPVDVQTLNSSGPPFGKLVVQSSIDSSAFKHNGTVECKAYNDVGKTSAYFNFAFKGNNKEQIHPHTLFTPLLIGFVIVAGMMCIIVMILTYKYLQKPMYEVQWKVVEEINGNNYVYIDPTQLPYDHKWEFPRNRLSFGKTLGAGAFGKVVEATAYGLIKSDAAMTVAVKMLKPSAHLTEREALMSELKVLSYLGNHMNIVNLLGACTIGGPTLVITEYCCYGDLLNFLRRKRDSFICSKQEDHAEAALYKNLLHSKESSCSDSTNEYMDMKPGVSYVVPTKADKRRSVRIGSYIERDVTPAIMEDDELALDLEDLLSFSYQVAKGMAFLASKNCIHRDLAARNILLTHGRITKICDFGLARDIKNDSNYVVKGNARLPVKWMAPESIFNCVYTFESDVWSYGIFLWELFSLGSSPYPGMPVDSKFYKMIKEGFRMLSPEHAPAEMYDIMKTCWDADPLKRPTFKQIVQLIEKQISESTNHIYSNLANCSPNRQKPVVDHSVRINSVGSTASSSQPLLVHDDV

With `COc1cc(-c2cc3c(N4CCN(C(=O)N[C@@H](C)c5cccc(OC(F)F)c5)C(C)(C)C4)ncnc3[nH]2)ccn1` [P-0012, N-[(1S)-1-[3-(difluoromethoxy)phenyl]ethyl]-4-[6-(2-methoxy-4-pyridyl)-7H-pyrrolo[2,3-d]pyrimidin-4-yl]-2,2-dimethyl-piperazine-1-carboxamide], the figures for the IC50 at c-kit mutant D816V and on c-kit kinase were 0.0001 to 1 µM and 1 to 10 µM, respectively.
In the case of `Cc1ccc(-c2cc3c(N4CCN(c5nc6ccccc6[nH]5)CC4)ncnc3[nH]2)cn1` [P-0013, 4-[4-(1H-benzimidazol-2-yl)piperazin-1-yl]-6-(6-methyl-3-pyridyl)-7H-pyrrolo[2,3-d]pyrimidine], the IC50 was in the range of 0.0001 to 1 µM at c-kit mutant D816V and 1 to 10 µM at c-kit kinase.
Turning to `C[C@H](NC(=O)N1CCN(c2ncnc3[nH]c(-c4ccc(F)cc4)cc23)C[C@H]1C)c1cccc(OC(F)F)c1` [P-0014, (2R)-N-[(1S)-1-[3-(difluoromethoxy)phenyl]ethyl]-4-[6-(4-fluorophenyl)-7H-pyrrolo[2,3-d]pyrimidin-4-yl]-2-methyl-piperazine-1-carboxamide], the IC50 lay in the range of 0.0001 to 1 µM on c-kit mutant D816V and 1 to 10 µM on c-kit kinase.
The like results for `[2H]C([2H])([2H])Oc1cccc([C@H](C)NC(=O)N2CCN(c3ncnc4[nH]c(-c5ccc(F)cc5)cc34)CC2)c1` [P-0015, 4-[6-(4-fluorophenyl)-7H-pyrrolo[2,3-d]pyrimidin-4-yl]-N-[(1S)-1-[3-(trideuteriomethoxy)phenyl]ethyl]piperazine-1-carboxamide] were, in that order, 0.0001 to 1 µM and 1 to 10 µM.
The matching figures for `C[C@H](NC(=O)N1CCN(c2ncnc3[nH]c(-c4ccc(F)cc4)cc23)CC1)c1cccc(N(C)C)c1` [P-0016, N-[(1S)-1-[3-(dimethylamino)phenyl]ethyl]-4-[6-(4-fluorophenyl)-7H-pyrrolo[2,3-d]pyrimidin-4-yl]piperazine-1-carboxamide]: 0.0001 to 1 µM and 1 to 10 µM.
In the case of `COc1ccc([C@H](C)NC(=O)N2CCN(c3ncnc4[nH]c(-c5ccc(F)cc5)cc34)C[C@H]2C)cc1` [P-0018, (2R)-4-[6-(4-fluorophenyl)-7H-pyrrolo[2,3-d]pyrimidin-4-yl]-N-[(1S)-1-(4-methoxyphenyl)ethyl]-2-methyl-piperazine-1-carboxamide], the IC50 on c-kit mutant D816V is 0.0001 to 1 µM; on c-kit kinase, 1 to 10 µM.
The matching figures for `COc1ccc([C@@H](C)NC(=O)N2CCN(c3ncnc4[nH]c(-c5ccc(Cl)cc5)cc34)C[C@H]2C)cc1` [P-0019, (2R)-4-[6-(4-chlorophenyl)-7H-pyrrolo[2,3-d]pyrimidin-4-yl]-N-[(1R)-1-(4-methoxyphenyl)ethyl]-2-methyl-piperazine-1-carboxamide]: 1 to 10 µM and 10 to 200 µM.
The matching figures for `C[C@H](NC(=O)N1CCN(c2ncnc3[nH]c(-c4ccc(Cl)cc4)cc23)C[C@H]1C)c1ccc(Cl)cc1` [P-0020, (2R)-N-[(1S)-1-(4-chlorophenyl)ethyl]-4-[6-(4-chlorophenyl)-7H-pyrrolo[2,3-d]pyrimidin-4-yl]-2-methyl-piperazine-1-carboxamide]: 1 to 10 µM and 1 to 10 µM.
The like results for `C[C@H](NC(=O)N1CCN(c2ncnc3[nH]c(-c4ccc(Cl)cc4)cc23)C[C@H]1C)c1ccc(F)cc1` [P-0023, (2R)-4-[6-(4-chlorophenyl)-7H-pyrrolo[2,3-d]pyrimidin-4-yl]-N-[(1S)-1-(4-fluorophenyl)ethyl]-2-methyl-piperazine-1-carboxamide] were, in that order, 0.0001 to 1 µM and 10 to 200 µM.
Consider `COc1cccc([C@H](C)NC(=O)N2CCN(c3ncnc4[nH]c(-c5ccc(Cl)cc5)cc34)C[C@H]2C)c1` [P-0024, (2R)-4-[6-(4-chlorophenyl)-7H-pyrrolo[2,3-d]pyrimidin-4-yl]-N-[(1S)-1-(3-methoxyphenyl)ethyl]-2-methyl-piperazine-1-carboxamide], for which the concentration for half-maximal inhibition (IC50) at c-kit mutant D816V is 0.0001 to 1 µM; at c-kit kinase, 1 to 10 µM.
Consider `C[C@H](NC(=O)N1CCN(c2ncnc3[nH]c(-c4ccc(F)cc4)cc23)CC1)c1cccc(Cl)c1` [P-0027, N-[(1S)-1-(3-chlorophenyl)ethyl]-4-[6-(4-fluorophenyl)-7H-pyrrolo[2,3-d]pyrimidin-4-yl]piperazine-1-carboxamide], for which the IC50 at c-kit mutant D816V lay within 0.0001 to 1 µM; on c-kit kinase, 10 to 200 µM.
The like results for `COc1cccc([C@H](C)NC(=O)N2CCN(c3ncnc4[nH]c(-c5ccc(F)cc5)cc34)C[C@H]2C)c1` [P-0028, (R)-4-[6-(4-Fluoro-phenyl)-7H-pyrrolo[2,3-d]pyrimidin-4-yl]-2-methyl-piperazine-1-carboxylic acid [(S)-1-(3-methoxy-phenyl)-ethyl]-amide] were, in that order, 0.0001 to 1 µM and 0.0001 to 1 µM.
The like results for `C[C@H](NC(=O)N1CCN(c2ncnc3[nH]c(-c4ccc(F)cc4)cc23)C[C@H]1C)c1ccc(Cl)cc1` [P-0029, (2R)-N-[(1S)-1-(4-chlorophenyl)ethyl]-4-[6-(4-fluorophenyl)-7H-pyrrolo[2,3-d]pyrimidin-4-yl]-2-methyl-piperazine-1-carboxamide] were, in that order, 0.0001 to 1 µM and 10 to 200 µM.
Take `C[C@H](NC(=O)N1CCN(c2ncnc3[nH]c(-c4ccc(F)cc4)cc23)C[C@H]1C)c1ccc(F)cc1` [P-0030, (2R)-N-[(1S)-1-(4-fluorophenyl)ethyl]-4-[6-(4-fluorophenyl)-7H-pyrrolo[2,3-d]pyrimidin-4-yl]-2-methyl-piperazine-1-carboxamide]: the concentration for half-maximal inhibition (IC50) lay within 0.0001 to 1 µM at c-kit mutant D816V and 10 to 200 µM on c-kit kinase.
The matching figures for `COc1ccc([C@@H](C)NC(=O)N2CCN(c3ncnc4[nH]c(-c5ccc(F)cc5)cc34)C[C@H]2C)cc1` [P-0031, (2R)-4-[6-(4-fluorophenyl)-7H-pyrrolo[2,3-d]pyrimidin-4-yl]-N-[(1R)-1-(4-methoxyphenyl)ethyl]-2-methyl-piperazine-1-carboxamide]: 1 to 10 µM and 10 to 200 µM.
In the case of `COc1cccc([C@@H](C)NC(=O)N2CCN(c3ncnc4[nH]c(-c5ccc(F)cc5)cc34)C[C@H]2C)c1` [P-0032, (2R)-4-[6-(4-fluorophenyl)-7H-pyrrolo[2,3-d]pyrimidin-4-yl]-N-[(1R)-1-(3-methoxyphenyl)ethyl]-2-methyl-piperazine-1-carboxamide], the IC50 at c-kit mutant D816V lay in the range of 1 to 10 µM; on c-kit kinase it was 10 to 200 µM.
The like results for `C[C@@H]1CN(c2ncnc3[nH]c(-c4ccc(F)cc4)cc23)CCN1C(=O)N[C@H](C)c1ccc(Cl)cc1` [P-0035, (2R)-N-[(1R)-1-(4-chlorophenyl)ethyl]-4-[6-(4-fluorophenyl)-7H-pyrrolo[2,3-d]pyrimidin-4-yl]-2-methyl-piperazine-1-carboxamide] were, in that order, 1 to 10 µM and 10 to 200 µM.
The matching figures for `C[C@H]1CN(c2ncnc3[nH]c(-c4ccncc4)cc23)CCN1C(=O)NCc1ccc(Cl)cc1` [P-0044, (2S)-N-[(4-chlorophenyl)methyl]-2-methyl-4-[6-(4-pyridyl)-7H-pyrrolo[2,3-d]pyrimidin-4-yl]piperazine-1-carboxamide]: 0.0001 to 1 µM and 0.0001 to 1 µM.
The matching figures for `C[C@H]1CN(c2ncnc3[nH]c(-c4ccncc4)cc23)CCN1C(=O)Nc1ccc(Cl)cc1` [P-0045, (2S)-N-(4-chlorophenyl)-2-methyl-4-[6-(4-pyridyl)-7H-pyrrolo[2,3-d]pyrimidin-4-yl]piperazine-1-carboxamide]: 1 to 10 µM and 1 to 10 µM.
`COc1cccc([C@H](C)NC(=O)N2CCN(c3ncnc4[nH]c(C#CC5CC5)cc34)CC2)c1` [P-0047, 4-[6-(2-cyclopropylethynyl)-7H-pyrrolo[2,3-d]pyrimidin-4-yl]-N-[(1S)-1-(3-methoxyphenyl)ethyl]piperazine-1-carboxamide]: the half-inhibitory concentration (IC50) on c-kit mutant D816V was in the range of 0.0001 to 1 µM; on c-kit kinase, 1 to 10 µM.
The like results for `CN(C)c1ccc(NC(=O)N2CCN(c3ncnc4[nH]c(C#CC5CC5)cc34)CC2)cc1` [P-0052, 4-[6-(2-cyclopropylethynyl)-7H-pyrrolo[2,3-d]pyrimidin-4-yl]-N-(4-dimethylaminophenyl)piperazine-1-carboxamide] were, in that order, 10 to 200 µM and 1 to 10 µM.
The like results for `O=C(Nc1ccc(OC(F)(F)F)cc1)N1CCN(c2ncnc3[nH]c(C#CC4CC4)cc23)CC1` [P-0053, 4-[6-(2-cyclopropylethynyl)-7H-pyrrolo[2,3-d]pyrimidin-4-yl]-N-[4-(trifluoromethoxy)phenyl]piperazine-1-carboxamide] were, in that order, 10 to 200 µM and 1 to 10 µM.
The like results for `C[C@@H]1CN(c2ncnc3[nH]c(-c4ccncc4)cc23)CCN1C(=O)NCc1cccc(Cl)c1` [P-0056, (2R)-N-[(3-chlorophenyl)methyl]-2-methyl-4-[6-(4-pyridyl)-7H-pyrrolo[2,3-d]pyrimidin-4-yl]piperazine-1-carboxamide] were, in that order, 0.0001 to 1 µM and 1 to 10 µM.
For the molecule `COc1ccc(NC(=O)N2CCN(c3ncnc4[nH]c(-c5ccncc5)cc34)C[C@H]2C)cn1` [P-0057, (2R)-N-(6-methoxy-3-pyridyl)-2-methyl-4-[6-(4-pyridyl)-7H-pyrrolo[2,3-d]pyrimidin-4-yl]piperazine-1-carboxamide], the values for the concentration for half-maximal inhibition (IC50) on c-kit mutant D816V and on c-kit kinase were 0.0001 to 1 µM and 1 to 10 µM, respectively.
